In US11401286B2 (Tetra Discovery Partners, LLC, priority 2012, dated 2022):
Counter-ions that a name gives are not always drawn.

Molecular target: PDE4D7 (Homo sapiens (Human), UniProt Q08499)
Conditions: not given

Sequence of PDE4D7 (Q08499 other isoform, or with tags, fused parts or gaps): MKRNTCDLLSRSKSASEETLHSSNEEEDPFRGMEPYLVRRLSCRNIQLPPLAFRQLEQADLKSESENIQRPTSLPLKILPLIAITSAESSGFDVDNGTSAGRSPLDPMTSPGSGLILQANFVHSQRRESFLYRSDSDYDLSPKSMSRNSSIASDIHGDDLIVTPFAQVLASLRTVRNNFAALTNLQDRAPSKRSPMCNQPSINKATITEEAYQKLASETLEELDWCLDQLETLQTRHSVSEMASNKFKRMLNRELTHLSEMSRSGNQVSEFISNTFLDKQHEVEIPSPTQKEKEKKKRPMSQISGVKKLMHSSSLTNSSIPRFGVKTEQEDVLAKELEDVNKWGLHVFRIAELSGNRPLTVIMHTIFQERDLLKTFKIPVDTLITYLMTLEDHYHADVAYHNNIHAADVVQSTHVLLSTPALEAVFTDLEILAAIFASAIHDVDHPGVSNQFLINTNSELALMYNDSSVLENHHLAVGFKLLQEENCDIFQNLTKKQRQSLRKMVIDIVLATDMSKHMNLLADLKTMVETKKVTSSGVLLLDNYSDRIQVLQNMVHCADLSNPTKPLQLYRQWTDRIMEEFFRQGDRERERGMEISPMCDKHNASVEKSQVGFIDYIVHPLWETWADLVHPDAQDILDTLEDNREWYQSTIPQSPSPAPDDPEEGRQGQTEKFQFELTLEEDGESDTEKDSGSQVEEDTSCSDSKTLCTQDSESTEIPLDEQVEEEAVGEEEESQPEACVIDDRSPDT

`OCCc1ccc(Nc2ccnc(-c3cccc(Cl)c3)c2)cc1` [Example 84, 2-(4-((2-(3-Chlorophenyl)pyridin-4-yl)amino)phenyl)ethanol hydrochloride] and `CN(c1ccc(CC(N)=O)cc1)c1cc(-c2cccc(Cl)c2)nc2c1CCC2` [Example 118, 2-(4-((2-(3-Chlorophenyl)-6,7-dihydro-5H-cyclopenta[b]pyridin-4-yl)(methyl)amino)phenyl)acetamide] cannot be ordered by IC50: > 1000 nM for the first, > 1000 nM for the second.

Same assay, conditions: read-out: PDE4D7 IC50

Going from `CCc1cc(Cc2ccc(CCO)cc2)nc(-c2cccc(Cl)c2)n1` [Example 67, 2-(4-((2-(3-Chlorophenyl)-6-ethylpyrimidin-4-yl)methyl)phenyl)ethanol] to `OCCc1ccc(Nc2cc(-c3cccc(Cl)c3)nc3c2CCC3)nc1` [Example 92, 2-(6-((2-(3-Chlorophenyl)-6,7-dihydro-5H-cyclopenta[b]pyridin-4-yl)amino)pyridin-3-yl)ethanol hydrochloride], the IC50 rises from < 1000 nM to > 1000 nM. The first is the more potent here.

In the case of `CN(C)CCc1ccc(Nc2cc(-c3cccc(Cl)c3)nc3c2CCC3)cc1` [Example 105, 2-(3-Chlorophenyl)-N-(4-(2-(dimethylamino)ethyl)phenyl)-6,7-dihydro-5H-cyclopenta[b]pyridin-4-amine hydrochloride], the IC50 is reported as > 1000 nM.

Same assay, conditions: read-out: PDE4D7 IC50; PDE4D7 without asterisk

Going from `CCCN(C)C(=O)Cc1ccc(Cc2cc(CC)nc(-c3cccc(Cl)c3)n2)cc1` [Example 194, 2-(4-((2-(3-Chlorophenyl)-6-ethylpyrimidin-4-yl)methyl)phenyl)-N-methyl-N-propylacetamide] to `CCc1cc(Cc2ccc(CC(=O)O)cc2)nc(-c2cccc(Cl)c2)n1` [Example 66, 2-(4-((2-(3-chlorophenyl)-6-ethylpyrimidin-4-yl)methyl)phenyl)acetic acid], the IC50 rises from < 1000 nM to > 1000 nM.

`OCCc1ccc(Nc2cc(-c3ccc[nH]3)nc3c2CCC3)cc1` [Example 132, 2-(4-((2-(1H-Pyrrol-2-yl)-6,7-dihydro-5H-cyclopenta[b]pyridin-4-yl)amino)phenyl)ethanol hydrochloride] and `OCCc1ccc(Nc2cc(-c3cc(Cl)ccc3Cl)nc3c2CCC3)cc1` [Example 156, 2-(4-((2-(2,5-Dichlorophenyl)-6,7-dihydro-5H-cyclopenta[b]pyridin-4-yl)amino)phenyl)ethanol hydrochloride] cannot be ordered by IC50: > 1000 nM for the first, > 1000 nM for the second.

Compared with `Cc1nc(Nc2ccc(F)cc2)nc(-c2ccc(Cl)s2)n1` [Example 23, 4-(5-chlorothiophen-2-yl)-N-(4-fluorophenyl)-6-methyl-1,3,5-triazin-2-amine], `CCNC(=O)Cc1ccc(Nc2nc(-c3ccc(Cl)s3)nc(C)c2CC)cc1` [Example 309, 2-[4-[[2-(5-Chloro-2-thienyl)-5-ethyl-6-methyl-pyrimidin-4-yl]amino]phenyl]-N-ethyl-acetamide] is lower in IC50: > 1000 nM for the first, < 1000 nM for the second. The second is the more potent here.

`CCc1c(C)nc(-c2ccc(Cl)s2)nc1Nc1ccc(Cc2nc(C(N)=O)c[nH]2)cc1` [Example 310, 2-[[4-[[2-(5-Chloro-2-thienyl)-5-ethyl-6-methyl-pyrimidin-4-yl]amino]phenyl]methyl]-1H-imidazole-4-carboxamide] and `NC(C(=O)O)c1ccc(Nc2nc(-c3ccc(Cl)s3)nc3c2CCC3)cc1` (stereo not drawn) [Example 12, 2-Amino-2-[4-[[2-(5-chloro-2-thienyl)-6,7-dihydro-5H-cyclopenta[d]pyrimidin-4-yl]amino]phenyl]acetic acid hydrochloride] cannot be ordered by IC50: > 1000 nM for the first, > 1000 nM for the second.

`NC(=O)Cc1ccc(Nc2nc(-c3cccc(Cl)c3)nc3c2S(=O)(=O)CC3)cc1` [Example 282, 2-(4-((2-(3-chlorophenyl)-5,5-dioxido-6,7-dihydrothieno[3,2-d]pyrimidin-4-yl)amino)phenyl)acetamide] and `CCCNC(=O)Cc1ccc(Nc2nc(-c3cccc(Cl)c3)nc3c2S(=O)(=O)CCC3)cc1` [Example 276, 2-(4-((2-(3-Chlorophenyl)-5,5-dioxido-7,8-dihydro-6H-thiopyrano[3,2-d]pyrimidin-4-yl)amino)phenyl)-N-propylacetamide] cannot be ordered by IC50: > 1000 nM for the first, > 1000 nM for the second.

First: CCc1nc(Nc2ccc(C(N)=O)cc2)nc(-c2cccc(Cl)c2)n1 [Example 62, 4-(4-(3-chlorophenyl)-6-ethyl-1,3,5-triazin-2-ylamino)benzamide]
Second: CCc1nc(Nc2ccc(CC(=O)O)cc2)nc(-c2cccc(Cl)c2)n1 [Example 39, 2-(4-((4-(3-chlorophenyl)-6-ethyl-1,3,5-triazin-2-yl)amino)phenyl)acetic acid]
The IC50 of the first is lower: < 1000 nM for the first, > 1000 nM for the second. The first is the more potent here.

`NC(=O)Cc1ccc(Nc2cc(C(F)(F)F)nc(C3CCCC3)n2)cc1` [Example 228, 2-(4-((2-Cyclopentyl-6-(trifluoromethyl)pyrimidin-4-yl)amino)phenyl)acetamide] and `OCCc1ccc(Nc2cc(C(F)(F)F)nc(C3CCCC3)n2)cc1` [Example 227, 2-(4-((2-Cyclopentyl-6-(trifluoromethyl)pyrimidin-4-yl)amino)phenyl)ethanol] cannot be ordered by IC50: < 1000 nM for the first, < 1000 nM for the second.

`NC(=O)Cc1ccc(Nc2cc(-c3cc(Cl)cc(Cl)c3)nc3c2CCC3)cc1` [Example 157, 2-(4-((2-(3,5-Dichlorophenyl)-6,7-dihydro-5H-cyclopenta[b]pyridin-4-yl)amino)phenyl)acetamide hydrochloride] and `C[C@H](O)Cc1ccc(Nc2cc(-c3cccc(Cl)c3)nc3c2CCC3)cc1` [Example 107, (S)-1-(4-((2-(3-Chlorophenyl)-6,7-dihydro-5H-cyclopenta[b]pyridin-4-yl)amino)phenyl)propan-2-ol] cannot be ordered by IC50: > 1000 nM for the first, > 1000 nM for the second.

`CCc1cc(Nc2ccc(C(C)(C)CO)cc2)nc(-c2cccc(Cl)c2)n1` [Example 184, 2-(4-((2-(3-Chlorophenyl)-6-ethylpyrimidin-4-yl)amino)phenyl)-2-methylpropan-1-ol] and `CCc1cc(Cc2ccc(C(C)(C)CO)cc2)nc(-c2cccc(Cl)c2)n1` [Example 197, 2-(4-((2-(3-Chlorophenyl)-6-ethylpyrimidin-4-yl)methyl)phenyl)-2-methylpropan-1-ol] cannot be ordered by IC50: > 1000 nM for the first, > 1000 nM for the second.

`NC(=O)Cc1ccc(Nc2cc(C3CC3)nc(-c3cccc(Cl)c3)n2)nc1` [Example 212, 2-(6-((2-(3-Chlorophenyl)-6-cyclopropylpyrimidin-4-yl)amino)pyridin-3-yl)acetamide] and `O=C(O)Cc1ccc(Nc2nc(-c3cccc(Cl)c3)nc(C3CC3)n2)cc1` [Example 36, 2-(4-((4-(3-chlorophenyl)-6-cyclopropyl-1,3,5-triazin-2-yl)amino)phenyl)acetic acid] cannot be ordered by IC50: > 1000 nM for the first, > 1000 nM for the second.

`Cc1cc(Nc2cc(-c3cccc(Cl)c3)nc3c2CCC3)ccc1CC#N` [Example 109, 2-(4-((2-(3-Chlorophenyl)-6,7-dihydro-5H-cyclopenta[b]pyridin-4-yl)amino)-2-methylphenyl)acetonitrile hydrochloride] and `CC(C)(CO)c1ccc(Cc2cc(-c3cccc(Cl)c3)nc3c2CCC3)cc1` [Example 128, 2-(4-((2-(3-Chlorophenyl)-6,7-dihydro-5H-cyclopenta[b]pyridin-4-yl)methyl)phenyl)-2-methylpropan-1-ol hydrochloride] cannot be ordered by IC50: > 1000 nM for the first, > 1000 nM for the second.

Going from `COC(=O)Cc1ccc(Cc2cc(-c3cccc(Cl)c3)nc(C(F)(F)F)c2)cc1` [Example 141, Methyl 2-(4-((2-(3-chlorophenyl)-6-(trifluoromethyl)pyridin-4-yl)methyl)phenyl)acetate] to `NC(=O)Cc1ccc(Nc2cc(-c3cccc(Cl)c3)nc(C(F)(F)F)c2)cc1` [Example 145, 2-(4-((2-(3-Chlorophenyl)-6-(trifluoromethyl)pyridin-4-yl)amino)phenyl)acetamide], the IC50 falls from > 1000 nM to < 1000 nM. The second is the more potent here.

First: O=S1(=O)CCCc2nc(C3CCCC3)nc(Cc3ccc(CCO)cc3)c21 [Example 288, 2-Cyclopentyl-4-(4-(2-hydroxyethyl)benzyl)-7,8-dihydro-6H-thiopyrano[3,2-d]pyrimidine 5,5-dioxide]
Second: OCCc1ccc(Cc2cc(C(F)(F)F)nc(C3CCCC3)n2)cc1 [Example 231, 2-(4-((2-Cyclopentyl-6-(trifluoromethyl)pyrimidin-4-yl)methyl)phenyl)ethanol]
The IC50 of the first is lower: < 1000 nM for the first, > 1000 nM for the second.

First: CCCNC(=O)Cc1ccc(Nc2nc(-c3ccccc3)nc3c2S(=O)(=O)CCC3)cc1 [Example 270, 2-(4-((5,5-dioxido-2-phenyl-7,8-dihydro-6H-thiopyrano[3,2-d]pyrimidin-4-yl)amino)phenyl)-N-propylacetamide]
Second: O=C(O)Cc1ccc(Nc2nc(-c3ccc(Cl)cc3)nc(C3CC3)n2)cc1 [Example 37, 2-(4-((4-(4-chlorophenyl)-6-cyclopropyl-1,3,5-triazin-2-yl)amino)phenyl)acetic acid]
The IC50 of the first is lower: < 1000 nM for the first, > 1000 nM for the second.

Compared with `NC(=O)Cc1ccc(Nc2ccnc(-c3cccc(Cl)c3)c2)cc1` [Example 83, 2-(4-((2-(3-Chlorophenyl)pyridin-4-yl)amino)phenyl)acetamide hydrochloride], `CCc1cc(Cc2ccc(CC(N)=O)cc2)nc(-c2cccc(Cl)c2)n1` [Example 65, 2-(4-((2-(3-Chlorophenyl)-6-ethylpyrimidin-4-yl)methyl)phenyl)acetamide] is lower in IC50: > 1000 nM for the first, < 1000 nM for the second. The second is the more potent here.

`OC[C@H]1CC[C@H](Nc2cc(-c3cccc(Cl)c3)nc3c2CCC3)CC1` [Example 93, Trans-4-((2-(3-Chlorophenyl)-6,7-dihydro-5H-cyclopenta[b]pyridin-4-yl)amino)cyclohexyl-methanol hydrochloride] and `CC(C)Oc1cc(Nc2ccc(CCO)cc2)c2c(n1)CCC2` [Example 260, 2-(4-((2-Isopropoxy-6,7-dihydro-5H-cyclopenta[b]pyridin-4-yl)amino)phenyl)ethanol hydrochloride] cannot be ordered by IC50: > 1000 nM for the first, > 1000 nM for the second.

`NC(=O)Cc1ccc(Nc2cc(C(F)(F)F)nc(OC3CCCC3)n2)cc1` [Example 198, 2-(4-((2-(Cyclopentyloxy)-6-(trifluoromethyl)pyrimidin-4-yl)amino)phenyl)acetamide] and `NC(=O)Cc1ccc(Cc2cc(C(F)(F)F)nc(-c3cccc(Cl)c3)n2)cc1` [Example 204, 2-(4-((2-(3-Chlorophenyl)-6-(trifluoromethyl)pyrimidin-4-yl)methyl)phenyl)acetamide] cannot be ordered by IC50: > 1000 nM for the first, > 1000 nM for the second.
